Experiments:
[1] = Pharmacokinetics in male C57BL/6 mice, oral gavage once a day for 5 days; conditions: day 5, d-S-pio or d-R-pio 15 mg/kg oral gavage daily; for t1/2 d-S: elimination half-life of analyte d-S-pio; for t1/2 h-R: elimination half-life of analyte h-R-pio; for t1/2 h-R / t1/2 h-S: h-rac-pio 30 mg/kg; for t1/2 h-S: elimination half-life of analyte h-S-pio
Protocol: Animals were then euthanized. Plasma was separated by centrifugation and stored at −80° C. until analyzed.
Concentrations were calculated by interpolation on standard curves generated from mouse plasma samples spiked with known concentrations of the pure analytes.

db/db mice = test: db/db mouse model of type II diabetes, 10-day daily oral dosing; assay type: in vivo; conditions: daily oral gavage 10 days, h-rac-pio 30 mg/kg, vs. vehicle; for decrease of inflammatory biomarker IL-6 / decrease of inflammatory biomarker TNF-α: d-R-pio 20 mg/kg; for adiponectin: d-S-pio 20 mg/kg
Protocol: Body weights were measured throughout the study. Non-fasting blood glucose (10 μL by tail snip) was measured 4 hours prior to first dose, and animals were sorted and assigned to groups based on this measure. […] A terminal blood sample was collected for determination of serum levels of cholesterol, triglycerides, free fatty acids, adiponectin, serum amyloid A, and cytokines IL-6, TNF-α, and MCP-1, using standard analytical methods. Quantitative results were analyzed by statistical methods using, as appropriate, one- or two-way ANOVA or Kruskal-Wallis tests for differences followed by Sidak's, Dunnett's, or Dunn's post-test to determine differences vs. vehicle-treated control animals. All graphs were generated with GraphPad Prism version 6.0.2 (GraphPad Software, Inc., La Jolla, Calif.).

[2] = Body weight gain in male C57BL/6J mice on a standard diet; assay type: in vivo, mouse; conditions: twice daily oral gavage 11 days, overall daily dose h-rac-pio 30 mg/kg, d-S-pio 15 mg/kg, d-R-pio 15 mg/kg, vs. vehicle
Protocol: Male C57BL/6J mice (about 28 g body weight) were acclimated singly-housed for one week to a reverse light/dark cycle with free access to water and standard maintenance diet. Animals were then handled daily for one week followed by another 7 days of twice daily dosing with vehicle (0.5% methylcellulose in water) by oral gavage. […] Body weights were measured twice daily, prior to each dosing, to adjust individual dosing volumes to actual body weights.

With `[2H][C@]1(Cc2ccc(OCCc3ccc(CC)cn3)cc2)SC(=O)NC1=O` [d-R-pio, (R)-5-({p-[2-(5-ethyl-2-pyridyl)ethoxy]phenyl}methyl)-(5-^2H)-1,3-thiazolidine-2,4-dione] the “t1/2 d-S” value [1] was 0.8 h, the “t1/2 h-R” value [1] was 2.5 h and the “t1/2 h-S” value [1] was 2.5 h. The “decrease of inflammatory biomarker IL-6” value (db/db mice) was “trending”, the “decrease of inflammatory biomarker TNF-α” value (db/db mice) was “trending” and the “percent body weight difference versus day 1 body weight” value [2] was “did not increase percent body weight difference over vehicle”.
For `CCc1ccc(CCOc2ccc(CC3SC(=O)NC3=O)cc2)nc1` (racemic) [h-rac-pio, rac-5-({p-[2-(5-Ethyl-2-pyridyl)ethoxy]phenyl}methyl)-1,3-thiazolidine-2,4-dione], the “decrease of inflammatory biomarker IL-6” value (db/db mice) was “trending”, the “decrease of inflammatory biomarker TNF-α” value (db/db mice) was “trending” and the adiponectin (db/db mice) was “significantly increased adiponectin”. For the same compound, the insulin (db/db mice) was “significantly decreased insulin” and the “percent body weight difference versus day 1 body weight” value [2] was “statistically significant increase in percent body weight difference compared to dosing with vehicle”.
With `[2H][C@@]1(Cc2ccc(OCCc3ccc(CC)cn3)cc2)SC(=O)NC1=O` [d-S-pio, (S)-5-({p-[2-(5-Ethyl-2-pyridyl)ethoxy]phenyl}methyl)-(5-^2H)-1,3-thiazolidine-2,4-dione] the “t1/2 d-S” value [1] was 2.3 h, the “t1/2 h-R” value [1] was 3.2 h and the “t1/2 h-S” value [1] was 3.1 h. For the same compound, the adiponectin (db/db mice) was “significantly increased adiponectin” and the “percent body weight difference versus day 1 body weight” value [2] was “statistically significant increase in percent body weight difference compared to dosing with vehicle”.

Reference: US11141411B2, “Methods of treating neurological, metabolic, and other disorders using enantiopure deuterium-enriched pioglitazone” (Poxel SA, priority 2014, dated 2021)
